Laboratory results from patent US8436023B2, “Cyclohexyl-azetidinyl antagonists of CCR2” (Janssen Pharmaceutica N.V., priority 2010, dated 2013).
Structures can show the parent of a compound that is named as a salt.

Each molecule was assayed against T1, CCR2 (Homo sapiens, UniProt P41597) (assay: MCP-1 Receptor Binding Assay in THP-1 Cells). Details: 0.5 nM 125I labeled MCP-1, 2 hours at 30° C., less polar isomer tested where stated, read-out: Inhibition of MCP-1 Binding IC50, CCR2 Binding.
T1 construct: host or cells: THP-1 human monocytic cells
T1 sequence (P41597 1-360 isoform P41597-2): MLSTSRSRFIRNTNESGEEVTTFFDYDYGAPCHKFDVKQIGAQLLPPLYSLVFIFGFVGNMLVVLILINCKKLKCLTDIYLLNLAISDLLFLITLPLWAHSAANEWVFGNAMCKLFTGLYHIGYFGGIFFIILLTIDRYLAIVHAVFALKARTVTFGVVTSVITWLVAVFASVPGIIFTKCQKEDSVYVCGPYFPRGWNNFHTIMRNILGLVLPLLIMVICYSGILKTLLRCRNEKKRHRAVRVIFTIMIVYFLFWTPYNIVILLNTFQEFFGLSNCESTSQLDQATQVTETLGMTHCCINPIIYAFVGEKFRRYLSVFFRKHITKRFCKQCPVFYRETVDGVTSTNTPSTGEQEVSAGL
Description: MCP-1 Receptor Binding Assay in THP-1 Cells
Human monocytic cell line THP-1 cells were obtained from American Type Culture Collection (Manassas, Va., USA). The THP-1 cells were grown in RPMI-1640 (RPMI: Roswell Park Memorial Institute Medium-cell culture growth media) supplemented with 10% fetal bovine serum in a humidified 5% CO2 atmosphere at 37° C. The cell density was maintained […].
THP-1 (cells were incubated with 0.5 nM ^125I labeled MCP-1 (Perkin-Elmer Life Sciences, Inc. Boston, Mass.) in the presence of varying concentrations of either unlabeled MCP-1 (R & D Systems, Minneapolis, Minn.) or test compound for 2 hours at 30° C. in a 96 well plate. Cells were then harvested onto a filter plate, dried, and 20 μL of Microscint 20 was added to each well. Plates were counted in a TopCount NXT, Microplate Scintillation & Luminescence Counter (Perkin-Elmer Life Sciences, Inc. Boston, Mass.). Blank values (buffer only) were subtracted from all values and drug treated values were compared to vehicle treated values. 1 μM cold MCP-1 was used for nonspecific binding.
Where an IC50 value was not obtained for a particular compound, the percent inhibition is provided at a test concentration of 25 μM.

Row | IC50 [µM] | SMILES
1 | 0.045 | CCOC(=O)C1CCC(N2CC(NC(=O)CNc3nn(C)c4ccc(OC(F)(F)F)cc34)C2)CC1 (single isomer, unassigned) [Example 58]
2 | 0.33 | CCC(O)[C@H]1CC[C@@H](N2CC(NC(=O)CNc3n[nH]c4ncc(C(F)(F)F)cc34)C2)CC1 (single isomer, unassigned) [Example 105]
3 | 0.33 | CCC(O)[C@H]1CC[C@H](N2CC(NC(=O)CNc3n[nH]c4ncc(C(F)(F)F)cc34)C2)CC1 (single isomer, unassigned) [Example 106]
4 | 0.036 | O=C(CNc1noc2ccc(C(F)(F)F)cc12)NC1CN(C2CCC(c3ccc4c(c3)OCO4)CC2)C1 (centres unmarked) [Example 1, N-[1-(4-Benzo[1,3]dioxol-5-yl-cyclohexyl)-azetidin-3-yl]-2-(5-trifluoromethyl-benzo[d]isoxazol-3-ylamino)-acetamide]
5 | 0.023 | COc1ccc(C2(O)CCC(N3CC(NC(=O)CNc4noc5ccc(C(F)(F)F)cc45)C3)CC2)cn1 (centres unmarked) [Example 2, N-{1-[4-Hydroxy-4-(6-methoxy-pyridin-3-yl)-cyclohexyl]-azetidin-3-yl}-2-(5-trifluoromethyl-benzo[d]isoxazol-3-ylamino)-acetamide]
6 | 0.031 | O=C(CNc1noc2ccc(C(F)(F)F)cc12)NC1CN(C2CCC(O)(c3cncs3)CC2)C1 (centres unmarked) [Example 3, N-[1-(4-Hydroxy-4-thiazol-5-yl-cyclohexyl)-azetidin-3-yl]-2-(5-trifluoromethyl-benzo[d]isoxazol-3-ylamino)-acetamide]
7 | 0.031 | O=C(CNc1noc2ccc(C(F)(F)F)cc12)NC1CN(C2CCC(O)(c3nccs3)CC2)C1 (centres unmarked) [Example 4, N-[1-(4-Hydroxy-4-thiazol-2-yl-cyclohexyl)-azetidin-3-yl]-2-(5-trifluoromethyl-benzo[d]isoxazol-3-ylamino)-acetamide]
8 | 0.33 | O=C(CNc1noc2ccc(C(F)(F)F)cc12)NC1CN(C2CCC(C3CCCCC3)CC2)C1 (centres unmarked) [Example 5, N-(1-Bicyclohexyl-4-yl-azetidin-3-yl)-2-(5-trifluoromethyl-benzo[d]isoxazol-3-ylamino)-acetamide]
9 | 0.029 | CCOC(=O)C1CCC(N2CC(NC(=O)CNc3noc4ccc(C(F)(F)F)cc34)C2)CC1 (centres unmarked) [Example 6, 4-{3-[2-(5-Trifluoromethyl-benzo[d]isoxazol-3-ylamino)-acetylamino]-azetidin-1-yl}-cyclohexanecarboxylic acid ethyl ester]
10 | 0.17 | CC(C)C1CCC(N2CC(NC(=O)CNc3noc4ccc(C(F)(F)F)cc34)C2)CC1 (centres unmarked) [Example 7, N-[1-(4-Isopropyl-cyclohexyl)-azetidin-3-yl]-2-(5-trifluoromethyl-benzo[d]isoxazol-3-ylamino)-acetamide]
11 | 7.7 | CC(C)(C)[Si](C)(C)OC1CCC(N2CC(NC(=O)CNc3noc4ccc(C(F)(F)F)cc34)C2)CC1 (centres unmarked) [Example 8, N-{1-[4-(tert-Butyl-dimethyl-silanyloxy)-cyclohexyl]-azetidin-3-yl}-2-(5-trifluoromethyl-benzo[d]isoxazol-3-ylamino)-acetamide]
12 | 0.77 | O=C(CNc1noc2ccc(C(F)(F)F)cc12)NC1CN(C2CCC(O)CC2)C1 (centres unmarked) [Example 9, N-[1-(4-Hydroxy-cyclohexyl)-azetidin-3-yl]-2-(5-trifluoromethyl-benzo[d]isoxazol-3-ylamino)-acetamide]
13 | 0.75 | CC(C)(C)OC(=O)NC1CCC(N2CC(NC(=O)CNc3noc4ccc(C(F)(F)F)cc34)C2)CC1 (centres unmarked) [Example 10, (4-{3-[2-(5-Trifluoromethyl-benzo[d]isoxazol-3-ylamino)-acetylamino]-azetidin-1-yl}-cyclohexyl)-carbamic acid tert-butyl ester]
14 | 2.9 | NC1CCC(N2CC(NC(=O)CNc3noc4ccc(C(F)(F)F)cc34)C2)CC1 (centres unmarked) [Example 11, N-[1-(4-Amino-cyclohexyl)-azetidin-3-yl]-2-(5-trifluoromethyl-benzo[d]isoxazol-3-ylamino)-acetamide TFA salt]
15 | 0.39 | CCC1CCC(N2CC(NC(=O)CNc3noc4ccc(C(F)(F)F)cc34)C2)CC1 (centres unmarked) [Example 12, N-[1-(4-Ethyl-cyclohexyl)-azetidin-3-yl]-2-(5-trifluoromethyl-benzo[d]isoxazol-3-ylamino)-acetamide]
16 | 0.45 | N#CC1CCC(N2CC(NC(=O)CNc3noc4ccc(C(F)(F)F)cc34)C2)CC1 (centres unmarked) [Example 13, N-[1-(4-Cyano-cyclohexyl)-azetidin-3-yl]-2-(5-trifluoromethyl-benzo[d]isoxazol-3-ylamino)-acetamide]
17 | 0.36 | CCCC1CCC(N2CC(NC(=O)CNc3noc4ccc(C(F)(F)F)cc34)C2)CC1 (centres unmarked) [Example 14, N-[1-(4-Propyl-cyclohexyl)-azetidin-3-yl]-2-(5-trifluoromethyl-benzo[d]isoxazol-3-ylamino)-acetamide]
18 | 0.01 | O=C(CNc1noc2ccc(OC(F)(F)F)cc12)NC1CN(C2CCC(c3ccc4c(c3)OCO4)CC2)C1 (centres unmarked) [Example 15, N-[1-(4-Benzo[1,3]dioxol-5-yl-cyclohexyl)-azetidin-3-yl]-2-(5-trifluoromethoxy-benzo[d]isoxazol-3-ylamino)-acetamide]
19 | 0.071 | CCOC(=O)C1CCC(N2CC(NC(=O)CNc3noc4ccc(OC(F)(F)F)cc34)C2)CC1 (centres unmarked) [Example 16, 4-{3-[2-(5-Trifluoromethoxy-benzo[d]isoxazol-3-ylamino)-acetylamino]-azetidin-1-yl}-cyclohexanecarboxylic acid ethyl ester]
20 | 0.75 | CC(C)C1CCC(N2CC(NC(=O)CNc3noc4ccc(OC(F)(F)F)cc34)C2)CC1 (centres unmarked) [Example 17, N-[1-(4-Isopropyl-cyclohexyl)-azetidin-3-yl]-2-(5-trifluoromethoxy-benzo[d]isoxazol-3-ylamino)-acetamide]
21 | 0.0094 | COc1ccc(C2(O)CCC(N3CC(NC(=O)CNc4nn(C)c5ccc(C(F)(F)F)cc45)C3)CC2)cn1 (centres unmarked) [Example 18, N-{1-[4-Hydroxy-4-(6-methoxy-pyridin-3-yl)-cyclohexyl]-azetidin-3-yl}-2-(1-methyl-5-trifluoromethyl-1H-indazol-3-ylamino)-acetamide]
22 | 0.056 | Cn1nc(NCC(=O)NC2CN(C3CCC(O)(c4cccnc4)CC3)C2)c2cc(C(F)(F)F)ccc21 (centres unmarked) [Example 19, N-[1-(4-Hydroxy-4-pyridin-3-yl-cyclohexyl)-azetidin-3-yl]-2-(1-methyl-5-trifluoromethyl-1H-indazol-3-ylamino)-acetamide]
23 | 0.0048 | CN(C)c1cccc(C2(O)CCC(N3CC(NC(=O)CNc4nn(C)c5ccc(C(F)(F)F)cc45)C3)CC2)c1 (centres unmarked) [Example 20, N-{1-[4-(3-Dimethylamino-phenyl)-4-hydroxy-cyclohexyl]-azetidin-3-yl}-2-(1-methyl-5-trifluoromethyl-1H-indazol-3-ylamino)-acetamide]
24 | 0.028 | Cn1nc(NCC(=O)NC2CN(C3CCC(O)(c4cncs4)CC3)C2)c2cc(C(F)(F)F)ccc21 (centres unmarked) [Example 21, N-[1-(4-Hydroxy-4-thiazol-5-yl-cyclohexyl)-azetidin-3-yl]-2-(1-methyl-5-trifluoromethyl-1H-indazol-3-ylamino)-acetamide]
25 | 0.013 | Cn1nc(NCC(=O)NC2CN(C3CCC(O)(c4nccs4)CC3)C2)c2cc(C(F)(F)F)ccc21 (centres unmarked) [Example 22, N-[1-(4-Hydroxy-4-thiazol-2-yl-cyclohexyl)-azetidin-3-yl]-2-(1-methyl-5-trifluoromethyl-1H-indazol-3-ylamino)-acetamide]
26 | 0.18 | CCc1ncc(C2(O)CCC(N3CC(NC(=O)CNc4nn(C)c5ccc(C(F)(F)F)cc45)C3)CC2)s1 (centres unmarked) [Example 23, N-{1-[4-(2-Ethyl-thiazol-5-yl)-4-hydroxy-cyclohexyl]-azetidin-3-yl}-2-(1-methyl-5-trifluoromethyl-1H-indazol-3-ylamino)-acetamide]
27 | 0.0053 | CC(C)c1ncc(C2(O)CCC(N3CC(NC(=O)CNc4nn(C)c5ccc(C(F)(F)F)cc45)C3)CC2)s1 (centres unmarked) [Example 24, N-{1-[4-Hydroxy-4-(2-isopropyl-thiazol-5-yl)-cyclohexyl]-azetidin-3-yl}-2-(1-methyl-5-trifluoromethyl-1H-indazol-3-ylamino)-acetamide]
28 | 0.2 | Cn1cc(C2(O)CCC(N3CC(NC(=O)CNc4nn(C)c5ccc(C(F)(F)F)cc45)C3)CC2)cn1 (centres unmarked) [Example 25, N-{1-[4-Hydroxy-4-(1-methyl-1H-pyrazol-4-yl)-cyclohexyl]-azetidin-3-yl}-2-(1-methyl-5-trifluoromethyl-1H-indazol-3-ylamino)-acetamide]
29 | 0.146 | Cn1nc(NCC(=O)NC2CN(C3CCC(O)(c4ncco4)CC3)C2)c2cc(C(F)(F)F)ccc21 (centres unmarked) [Example 26, N-[1-(4-Hydroxy-4-oxazol-2-yl-cyclohexyl)-azetidin-3-yl]-2-(1-methyl-5-trifluoromethyl-1H-indazol-3-ylamino)-acetamide]
